Key:
BT-549 cells = test: Cell-based assay: anti-proliferative activity, Cell Counting Kit-8, 72 hours (BT-549); details: Homo sapiens, BT-549, 72 h, BT549 cells, MELK-expressing; Cell Counting Kit-8 at 72 hours
Method in brief: (§1)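 Cellular growth is read by CCK-8 colorimetric kit 72 h after inhibitor addition to seeded cells, and IC50 values are derived from the resulting data; MELK protein levels in these lines are checked beforehand by immunoblotting whole crude lysate.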

HT-1197 cells = test: Cell-based assay: anti-proliferative activity, Cell Counting Kit-8, 72 hours (HT-1197, negative control without MELK expression); details: Homo sapiens, HT1197, 72 h, HT1197 cells, no MELK expression (negative control); Cell Counting Kit-8 at 72 hours
Method in brief: as §1

MELK = MELK (Homo sapiens, UniProt Q14680); test: Kinase assay: MELK activity, phosphorylation of FITC-labeled histone H3 peptide measured by IMAP fluorescence polarization; type: biochemical; details: 50 micro-M ATP, FITC-labeled histone H3 peptide substrate, IMAP fluorescence polarization; read-out: IC50 (μM) (kinase assay)
Method in brief: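 FP readout: FITC-histone H3 peptide phosphorylation, read 0.5 h (RT) after stopping with 3x volume of IMAP progressive binding solution. Final DMSO 1%.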

A549 cells = test: Cell-based assay: anti-proliferative activity, Cell Counting Kit-8, 72 hours (A549); details: Homo sapiens, A549, 72 h, MELK-expressing, Cell Counting Kit-8 at 72 hours
Method in brief: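 Cell Counting Kit-8 read-out of A549 growth after 72 hours of inhibitor exposure, cells plated in 96-well format. Values reported as IC50.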

T47D cells = test: Cell-based assay: anti-proliferative activity, Cell Counting Kit-8, 72 hours (T47D); details: Homo sapiens, T47D, 72 h, MELK-expressing, Cell Counting Kit-8 at 72 hours
Method in brief: as §1

Chain of MELK (Q14680 whole entry, looked up): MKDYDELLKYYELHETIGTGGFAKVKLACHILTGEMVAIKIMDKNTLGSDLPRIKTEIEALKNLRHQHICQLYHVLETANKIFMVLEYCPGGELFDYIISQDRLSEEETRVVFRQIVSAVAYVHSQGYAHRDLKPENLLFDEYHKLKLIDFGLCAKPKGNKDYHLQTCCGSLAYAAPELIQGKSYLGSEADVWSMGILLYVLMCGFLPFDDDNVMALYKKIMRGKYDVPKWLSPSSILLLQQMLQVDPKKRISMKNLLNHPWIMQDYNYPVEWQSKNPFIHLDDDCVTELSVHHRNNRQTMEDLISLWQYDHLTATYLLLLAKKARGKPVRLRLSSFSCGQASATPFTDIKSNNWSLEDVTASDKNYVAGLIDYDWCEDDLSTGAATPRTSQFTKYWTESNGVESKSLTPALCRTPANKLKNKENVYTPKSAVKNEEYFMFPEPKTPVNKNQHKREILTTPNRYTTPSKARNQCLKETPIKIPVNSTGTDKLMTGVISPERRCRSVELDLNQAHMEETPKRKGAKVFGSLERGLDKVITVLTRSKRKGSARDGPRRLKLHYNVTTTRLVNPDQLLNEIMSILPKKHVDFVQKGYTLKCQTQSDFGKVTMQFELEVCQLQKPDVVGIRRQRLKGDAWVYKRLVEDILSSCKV

SMILES | IC50 (BT-549 cells) [µM] | IC50 (HT-1197 cells) [µM] | IC50 (MELK) [µM] | IC50 (A549 cells) [µM] | IC50 (T47D cells) [µM]
COc1cc(-c2ccc3ncc(C(=O)C4CC4)c(N4CCC5(CCNC5)CC4)c3c2)cc(Cl)c1O [Example 155, [6-(3-Chloro-4-hydroxy-5-methoxyphenyl)-4-(2,8-diazaspiro[4,5]decan-8-yl)quinolin-3-yl](cyclopropyl)methanone] | 0.79 | 2.4 | 0.004 | 0.68 | 0.43
COc1cc(-c2ccc3ncc(C(=O)C4CC4)c(NC4CCN(C)CC4)c3c2)ccc1O [Example 177, Cyclopropyl[6-(4-hydroxy-3-methoxyphenyl)-4-(1-methylpiperidin-4-ylamino)quinolin-3-yl]methanone] | 2.6 | 2.3 | 0.026 | 0.83 | 0.88
CN1CCN(C2CCN(c3c(C(=O)C4CC4)cnc4ccc(-c5ccc(O)c(Cl)c5)cc34)CC2)CC1 [Example 350, {6-(3-Chloro-4-hydroxyphenyl)-4-[4-(4-methylpiperazin-1-yl)piperidin-1-yl]quinolin-3-yl}(cyclopropyl)methanone] | 0.98 | 2.5 | 0.005 | 0.44 | 0.26
COc1cc(-c2ccc3ncc(C(=O)C4CC4)c(N4CCC(N5CCN(C)CC5)CC4)c3c2)cc(Cl)c1O [Example 351, {6-(3-Chloro-4-hydroxy-5-methoxyphenyl)-4-[4-(4-methylpiperazin-1-yl)piperidin-1-yl]quinolin-3-yl}(cyclopropyl)methanone] | 0.67 | 3 | 0.0022 | 0.33 | 0.34
CN1CCC(CNc2c(C(=O)C3CC3)cnc3ccc(-c4cc(F)c(O)c(Cl)c4)cc23)CC1 [Example 270, {6-(3-Chloro-5-fluoro-4-hydroxyphenyl)-4-[(1-methylpiperidin-4-yl)methylamino]quinolin-3-yl}(cyclopropyl)methanone] | 1.1 | 2.9 | 0.021 | 0.69 | 0.51
COc1cc(-c2ccc3ncc(C(=O)C4CC4)c(NC45CC6CC(CC(N)(C6)C4)C5)c3c2)cc(Cl)c1O [Example 309, {6-(3-Chloro-4-hydroxy-5-methoxyphenyl)-4-[(3-amino)adamantylamino]quinolin-3-yl}(cyclopropyl)methanone] | 0.49 | 0.5 | 0.0087 | 0.28 | 0.32
COc1cc(-c2ccc3ncc(C(=O)C4CC4)c(N4CCC(C(C)N(C)C)CC4)c3c2)ccc1O (centres unmarked) [Example 187, Cyclopropyl(4-{4-[1-(dimethylamino)ethyl]piperidin-1-yl}-6-(4-hydroxy-3-methoxyphenyl)quinolin-3-yl)methanone] | 2 | 2.2 | 0.0034 | 0.65 | 0.44
CN(C)[C@H]1CC[C@H](CNc2c(C(=O)C3CC3)cnc3ccc(-c4cc(F)c(O)c(Cl)c4)cc23)CC1 [Example 327] | 1 | 3 | 0.0055 | 0.42 | 0.48
COc1cc(-c2ccc3ncc(C(=O)C4CC4)c(NC4CCN(C)CC4)c3c2)cc(Cl)c1O [Example 249] | 1.3 | 4.4 | 0.0079 | 0.3 | 0.83
COc1cc(-c2ccc3ncc(C(=O)C4CC4)c(N4CCC(CN(C)C)CC4)c3c2)cc(Cl)c1O [Example 276, [6-(3-Chloro-4-hydroxy-5-methoxyphenyl)-4-{4-[(dimethylamino)methyl]piperidin-1-yl}quinolin-3-yl](cyclopropyl)methanone] | 0.58 | 1.8 | 0.0008 | 0.21 | 0.16
CC(C)C(=O)c1cnc2ccc(-c3cc(Cl)c(O)c(Cl)c3)cc2c1N[C@H]1CC[C@H](N)CC1 [Example 225(a), 1-{4-[trans-4-Aminocyclohexylamino]-6-(3,5-dichloro-4-hydroxyphenyl)quinolin-3-yl}-2-methylpropan-1-one] | 0.18 | 2 | 0.0025 | 0.43 | 0.073
CC(C1CCN(c2c(C(=O)C3CC3)cnc3ccc(-c4cc(F)c(O)c(F)c4)cc23)CC1)N(C)C (centres unmarked) [Example 181, Cyclopropyl[6-(3,5-difluoro-4-hydroxyphenyl)-4-{4-[1-(dimethylamino)ethyl]piperidin-1-yl}quinolin-3-yl]methanone] | 0.73 | 1.1 | 0.011 | 0.7 | 0.47
COc1cc(-c2ccc3ncc(C(=O)C4CC4)c(N4CCC(CN5CCCC5)CC4)c3c2)cc(F)c1O [Example 307, Cyclopropyl{6-(3-fluoro-4-hydroxy-5-methoxyphenyl)-4-[4-(pyrrolidin-1-ylmethyl)piperidin-1-yl]quinolin-3-yl}methanone] | 1.2 | 3 | 0.0041 | 0.53 | 0.79
COc1cc(-c2ccc3ncc(C(C)=O)c(N4CCC(CN(C)C)CC4)c3c2)cc(Cl)c1O [Example 305, 1-[6-(3-chloro-4-hydroxy-5-methoxyphenyl)-4-{4-[(dimethylamino)methyl]piperidin-1-yl}quinolin-3-yl]ethanone] | 0.33 | 3.6 | 0.0022 | 0.14 | 0.21
COc1cc(-c2ccc3ncc(C(=O)C4CC4)c(N[C@H]4CC[C@H](N)CC4)c3c2)ccc1O [Example 81, {4-[trans-4-Aminocyclohexylamino]-6-(4-hydroxy-3-methoxyphenyl)quinolin-3-yl}(cyclopropyl)methanone] | 0.55 | 1.2 | 0.007 | 0.23 | 0.13
O=C(c1cnc2ccc(-c3cc(F)c(O)c(Cl)c3)cc2c1N1CCC(CN2CCCC2)CC1)C1CC1 [Example 283, {6-(3-Chloro-5-fluoro-4-hydroxyphenyl)-4-[4-(pyrrolidin-1-ylmethyl)piperidin-1-yl]quinolin-3-yl}(cyclopropyl)methanone] | 0.72 | 3 | 0.0029 | 0.54 | 0.35
COc1cc(-c2ccc3ncc(C(=O)C4CC4)c(N[C@H]4CC[C@H](CN(C)C)CC4)c3c2)cc(Cl)c1O [Example 316] | 1.3 | 6.3 | 0.011 | 0.32 | 0.5
N[C@H]1CC[C@H](Nc2c(C(=O)C3CC3)cnc3ccc(-c4cc(Cl)c(O)c(Cl)c4)cc23)CC1 [Example 157(a), {4-[trans-4-Aminocyclohexylamino]-6-(3,5-dichloro-4-hydroxyphenyl)quinolin-3-yl}(cyclopropyl)methanone] | 0.33 | 3.7 | 0.0076 | 0.57 | 0.15
CC(C1CCN(c2c(C(=O)C3CC3)cnc3ccc(-c4cc(F)c(O)c(Cl)c4)cc23)CC1)N(C)C (centres unmarked) [Example 269, [6-(3-Chloro-5-fluoro-4-hydroxyphenyl)-4-{4-[1-(dimethylamino)ethyl]piperidin-1-yl}quinolin-3-yl](cyclopropyl)methanone] | 0.5 | 1.3 | 0.0037 | 0.44 | 0.22
